Results on 22 molecules are retold here after patent US9604996B2 (Bayer Pharma Aktiengesellschaft, priority 2013, dated 2017).

This assay concerns the target T1, human adenosine A2b receptor (Homo sapiens, UniProt P29275).
T1 construct: expressed in transfected cells; host or cells: CHO-K1 (Chinese Hamster Ovary) with CRE-luciferase reporter
T1 sequence (P29275 1-332): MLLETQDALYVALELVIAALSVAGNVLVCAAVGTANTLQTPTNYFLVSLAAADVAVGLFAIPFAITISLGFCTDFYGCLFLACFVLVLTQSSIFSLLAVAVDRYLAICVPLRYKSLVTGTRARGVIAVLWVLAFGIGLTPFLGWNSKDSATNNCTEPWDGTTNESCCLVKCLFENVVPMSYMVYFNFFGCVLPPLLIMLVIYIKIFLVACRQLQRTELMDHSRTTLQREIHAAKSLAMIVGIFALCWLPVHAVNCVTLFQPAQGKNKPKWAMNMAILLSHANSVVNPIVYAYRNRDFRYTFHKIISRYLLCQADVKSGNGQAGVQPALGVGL
The assay is described as follows: Cellular reporter gene (CRE-luciferase) A2b receptor antagonist assay in recombinant CHO-K1 cells stimulated with NECA. Format: cell-based. To be noted: recombinant CHO-K1 cell line, co-incubation with EC50 concentration of NECA, 3 hours, in some cases means, rounded to two significant digits. The protocol:
B-1. Cellular In Vitro Tests for Determining A2b Receptor Activity and Adenosine Receptor Selectivity
The identification of selective antagonists of the human adenosine A2b receptor and the quantification of the efficacy and selectivity of the compounds according to the invention was carried out with the aid of recombinant cell lines for the human adenosine receptors A1, A2a, A2b and A3. These cell lines were originally derived from an ovarepithelial cell of the hamster (Chinese Hamster Ovary, CHO-K1, American Type Culture Collection, Manassas, Va. 20108, USA). In addition to the respective recombinantly expressed adenosine receptor for testing the efficacy at the A1, A2a and A2b receptors, the cell lines contain a reporter gene construct where expression of the firefly (Photinus pyralis) luciferase is under the control of a promoter which can be activated via intracellular signal cascades by stimulation of the receptors with the (not subtype-selective) adenosine receptor agonist NECA (5′-N-ethylcarboxamidoadenosine) [S. J. Hill, J. G. Baker, S. Rhees, Curr. Opin. Pharmacol. 1, 526-532 (2001)].
In the case of the A2a and A2b cell lines, this is a minimal promoter having a plurality of cAMP-responsive elements (CRE). Stimulation of the Gs coupled A2b or A2a receptors by NECA ultimately leads, via formation of cAMP, to CRE-dependent induction of luciferase expression, which is detected 3 hours after the start of the incubation with NECA using a detection solution in a suitable luminometer. For testing the antagonists, initially, in a pre-experiment, the concentration of NECA which, at the test day in question, results in half-maximum stimulation of luciferase expression (EC50 concentration) is determined By joint incubation of this EC50 concentration of NECA with the substances to be tested, it is possible to determine their antagonistic activity.
(In general: In a reporter assay the amount or activity of a reporter protein is the signal.)

Broadly, the IC50 is the midpoint of a concentration-inhibition curve.

For the molecule `CC(C)Cn1c(=O)c2c(C(F)F)c(C(=O)N3CCC(C)(O)CC3)sc2n(CCC(F)(F)F)c1=O` [Example 140, 5-(Difluoromethyl)-6-[(4-hydroxy-4-methylpiperidin-1-yl)carbonyl]-3-isobutyl-1-(3,3,3-trifluoropropyl)thieno[2,3-d]pyrimidine-2,4(1H,3H)-dione], the IC50 was determined as 39 nM.

In the case of `CCn1c(=O)c2c(C(C)F)c(C(=O)N3CCC(O)CC3)sc2n(CCC(F)(F)F)c1=O` (racemic) [Example 145, 3-Ethyl-5-(1-fluoroethyl)-6-[(4-hydroxypiperidin-1-yl)carbonyl]-1-(3,3,3-trifluoropropyl)thieno[2,3-d]pyrimidine-2,4(1H,3H)-dione], the half-maximal inhibitory concentration (IC50) was 97 nM.

With `CCCn1c(=O)c2c(C(F)F)c(C(=O)N3CCC(O)CC3)sc2n(CCC(F)(F)F)c1=O` [Example 141, 5-(Difluoromethyl)-6-[(4-hydroxypiperidin-1-yl)carbonyl]-3-propyl-1-(3,3,3-trifluoropropyl)thieno[2,3-d]pyrimidine-2,4(1H,3H)-dione], the IC50 was 57 nM.

With `CC1(O)CCN(C(=O)c2sc3c(c2C(F)F)c(=O)n(CCc2ccccc2)c(=O)n3CCC(F)(F)F)CC1` [Example 85, 5-(Difluoromethyl)-6-[(4-hydroxy-4-methylpiperidin-1-yl)carbonyl]-3-(2-phenylethyl)-1-(3,3,3-trifluoropropyl)thieno[2,3-d]pyrimidine-2,4(1H,3H)-dione], the IC50 was found to be 9.5 nM.

Turning to `C=C(Cn1c(=O)n(CC)c(=O)c2c(C)c(C(=O)N3CCC(O)CC3)sc21)C(F)(F)F` [Example 58, 3-Ethyl-6-[(4-hydroxypiperidin-1-yl)carbonyl]-5-methyl-1-[2-(trifluoromethyl)prop-2-en-1-yl]thieno[2,3-d]pyrimidine-2,4(1H,3H)-dione], the concentration for half-maximal inhibition (IC50) is 380 nM.

In the case of `CCn1c(=O)c2c(C)c(C(=O)N3CCC(O)CC3)sc2n(CCOC)c1=O` [Example 20, 3-Ethyl-6-[(4-hydroxypiperidin-1-yl)carbonyl]-1-(2-methoxyethyl)-5-methylthieno[2,3-d]pyrimidine-2,4(1H,3H)-dione], the IC50 turned out to be 340 nM.

In the case of `Cc1c(C(=O)N2CCC(O)CC2)sc2c1c(=O)n(CCc1ccc(Cl)cc1)c(=O)n2CCC(F)(F)F` [Example 13, 3-[2-(4-Chlorophenyl)ethyl]-6-[(4-hydroxypiperidin-1-yl)carbonyl]-5-methyl-1-(3,3,3-trifluoropropyl)thieno [2,3-d]pyrimidine-2,4(1H,3H)-dione], the IC50 worked out at 100 nM.

As to `CCn1c(=O)c2c(C(F)F)c(C(=O)N3CCC(C)(O)CC3)sc2n(CCC(F)(F)F)c1=O` [Example 124, 5-(Difluoromethyl)-3-ethyl-6-[(4-hydroxy-4-methylpiperidin-1-yl)carbonyl]-1-(3,3,3-trifluoropropyl)thieno[2,3-d]pyrimidine-2,4(1H,3H)-dione], the IC50 came out at 37 nM.

As to `CC(C)Cn1c(=O)c2c(C(F)F)c(C(=O)N3CCC(C)(O)CC3)sc2n(CCOC(F)(F)F)c1=O` [Example 138, 5-(Difluoromethyl)-6-[(4-hydroxy-4-methylpiperidin-1-yl)carbonyl]-3-isobutyl-1-[2-(trifluoromethoxy)ethyl]thieno[2,3-d]pyrimidine-2,4(1H,3H)-dione], the IC50 was determined as 15 nM.

On to `CCn1c(=O)c2c(C)c(C(=O)N3[C@@H]4CC[C@H]3CC(O)C4)sc2n(CCC(F)(F)F)c1=O` (stereo partly shown) [Example 23, 3-Ethyl-6-[(3-hydroxy-8-azabicyclo[3.2.1]oct-8-yl)carbonyl]-5-methyl-1-(3,3,3-trifluoropropyl)thieno[2,3-d]pyrimidine-2,4(1H,3H)-dione], for which the IC50 came to 43 nM.

Turning to `Cc1c(C(=O)N2CCC(O)CC2)sc2c1c(=O)n(CC(C)c1ccccc1)c(=O)n2CCC(F)(F)F` (single isomer, unassigned; enantiomer 1) [Example 44, 6-[(4-Hydroxypiperidin-1-yl)carbonyl]-5-methyl-3-(2-phenylpropyl)-1-(3,3,3-trifluoropropyl)thieno[2,3-d]pyrimidine-2,4(1H,3H)-dione (enantiomer 1)], the IC50 is 4.6 nM.

Consider `CCn1c(=O)c2c(C(F)F)c(C(=O)N3CCC(O)(CC)CC3)sc2n(CCC(F)(F)F)c1=O` [Example 125, 5-(Difluoromethyl)-3-ethyl-6-[(4-ethyl-4-hydroxypiperidin-1-yl)carbonyl]-1-(3,3,3-trifluoropropyl)thieno[2,3-d]pyrimidine-2,4(1H,3H)-dione], for which the half-inhibitory concentration (IC50) came to 48 nM.

With `CCn1c(=O)c2c(C(C)F)c(C(=O)N3CCNC(=O)C3)sc2n(CCC(F)(F)F)c1=O` (single isomer, unassigned) [Example 149, 3-Ethyl-5-(1-fluoroethyl)-6-[(3-oxopiperazin-1-yl)carbonyl]-1-(3,3,3-trifluoropropyl)thieno[2,3-d]pyrimidine-2,4(1H,3H)-dione], the IC50 is 320 nM.

Take `CCn1c(=O)c2c(C)c(C(=O)N3CCC(O)(CC)CC3)sc2n(CCC(F)(F)F)c1=O` [Example 113, 3-Ethyl-6-[(4-ethyl-4-hydroxypiperidin-1-yl)carbonyl]-5-methyl-1-(3,3,3-trifluoropropyl)thieno[2,3-d]pyrimidine-2,4(1H,3H)-dione]: the IC50 was found to be 70 nM.

For the molecule `COC(Cn1c(=O)c2c(C)c(C(=O)N3CCC(O)(CO)CC3)sc2n(CCC(F)(F)F)c1=O)C(F)(F)F` (racemic) [Example 81, 6-{[4-Hydroxy-4-(hydroxymethyl)piperidin-1-yl]carbonyl}-5-methyl-3-(3,3,3-trifluoro-2-methoxypropyl)-1-(3,3,3-trifluoropropyl)thieno[2,3-d]pyrimidine-2,4(1H,3H)-dione], the IC50 was found to be 170 nM.

Regarding `Cc1c(C(=O)N2CCC(O)CC2)sc2c1c(=O)n(CC(F)(F)c1ccccc1)c(=O)n2CCC(F)(F)F` [Example 51, 3-(2,2-Difluoro-2-phenylethyl)-6-[(4-hydroxypiperidin-1-yl)carbonyl]-5-methyl-1-(3,3,3-trifluoropropyl)thieno[2,3-d]pyrimidine-2,4(1H,3H)-dione], the IC50 turned out to be 16 nM.

In the case of `O=C(c1sc2c(c1C(F)F)c(=O)n(CCc1ccccc1)c(=O)n2CCC(F)(F)F)N1CCC(O)CC1` [Example 84, 5-(Difluoromethyl)-6-[(4-hydroxypiperidin-1-yl)carbonyl]-3-(2-phenylethyl)-1-(3,3,3-trifluoropropyl)thieno[2,3-d]pyrimidine-2,4(1H,3H)-dione], the 50% inhibitory concentration (IC50) is 19 nM.

On to `CCn1c(=O)c2c(C(F)(F)F)c(C(=O)N3CCC(O)(CO)CC3)sc2n(CCC(F)(F)F)c1=O` [Example 83, 3-Ethyl-6-{[4-hydroxy-4-(hydroxymethyl)piperidin-1-yl]carbonyl}-5-(trifluoromethyl)-1-(3,3,3-trifluoropropyl)thieno[2,3-d]pyrimidine-2,4(1H,3H)-dione], for which the IC50 was 56 nM.

For the molecule `COC(Cn1c(=O)c2c(C)c(C(=O)N3CCC(O)CC3)sc2n(CCC(F)(F)F)c1=O)C(F)(F)F` (single isomer, unassigned) [Example 108, 6-[(4-Hydroxypiperidin-1-yl)carbonyl]-5-methyl-3-(3,3,3-trifluoro-2-methoxypropyl)-1-(3,3,3-trifluoropropyl)thieno[2,3-d]pyrimidine-2,4(1H,3H)-dione], the IC50 is 580 nM.

Regarding `CCCn1c(=O)c2c(C)c(C(=O)N3CCC(O)CC3)sc2n(CCOC(F)(F)F)c1=O` [Example 60, 6-[(4-Hydroxypiperidin-1-yl)carbonyl]-5-methyl-3-propyl-1-[2-(trifluoromethoxy)ethyl]thieno[2,3-d]pyrimidine-2,4(1H,3H)-dione], the IC50 turned out to be 12 nM.

For the molecule `CCn1c(=O)c2c(C)c(C(=O)N3CCC(O)CC3)sc2n(CCSC(F)(F)F)c1=O` [Example 57, 3-Ethyl-6-[(4-hydroxypiperidin-1-yl)carbonyl]-5-methyl-1-{2-[(trifluoromethyl)sulphanyl]ethyl}thieno[2,3-d]pyrimidine-2,4(1H,3H)-dione], the IC50 is 130 nM.

On to `Cc1c(C(=O)N2CCC(O)CC2)sc2c1c(=O)n(CCc1ccccc1)c(=O)n2CCOC(F)(F)F` [Example 99, 6-[(4-Hydroxypiperidin-1-yl)carbonyl]-5-methyl-3-(2-phenylethyl)-1-[2-(trifluoromethoxy)ethyl]thieno[2,3-d]pyrimidine-2,4(1H,3H)-dione], for which the IC50 was 10 nM.
